# Reference: ChEMBL document CHEMBL3862012, “Methylene versus carbonyl bridge in the structure of new tubulin polymerization inhibitors with tricyclic A-rings” (Bioorg Med Chem, 2016)
# Key:
# Format in all cases: functional
# [1] = Cytotoxicity against human CCRF-CEM cells assessed as growth inhibition at 10 uM after 48 hrs by SRB assay relative to control; settings: read-out: GI
# [2] = Cytotoxicity against human NCI-H23 cells assessed as growth inhibition at 10 uM after 48 hrs by SRB assay relative to control; settings: NCI-H23, 48 h, read-out: GI
# [3] = Cytotoxicity against human HCT116 cells assessed as growth inhibition at 10 uM after 48 hrs by SRB assay relative to control; settings: HCT-116, 48 h, read-out: GI
# [4] = Cytotoxicity against human KM12 cells assessed as growth inhibition at 10 uM after 48 hrs by SRB assay relative to control; settings: KM12, 48 h, read-out: GI
# [5] = Cytotoxicity against human SF268 cells assessed as growth inhibition at 10 uM after 48 hrs by SRB assay relative to control; settings: SF-268, 48 h, read-out: GI
# [6] = Cytotoxicity against human SF539 cells assessed as growth inhibition at 10 uM after 48 hrs by SRB assay relative to control; settings: SF-539, 48 h, read-out: GI
# [7] = Cytotoxicity against human SNB75 cells assessed as growth inhibition at 10 uM after 48 hrs by SRB assay relative to control; settings: SNB-75, 48 h, read-out: GI
# [8] = Cytotoxicity against human U251 cells assessed as growth inhibition at 10 uM after 48 hrs by SRB assay relative to control; settings: U-251, 48 h, read-out: GI
# [9] = Cytotoxicity against human M14 cells assessed as growth inhibition at 10 uM after 48 hrs by SRB assay relative to control; settings: M14, 48 h, read-out: GI
# [10] = Cytotoxicity against human MDA-MB-435 cells assessed as growth inhibition at 10 uM after 48 hrs by SRB assay relative to control; settings: MDA-MB-435, 48 h, read-out: GI
# [11] = Cytotoxicity against human OVCAR5 cells assessed as growth inhibition at 10 uM after 48 hrs by SRB assay relative to control; settings: OVCAR-5, 48 h, read-out: GI
# [12] = Cytotoxicity against human SKOV3 cells assessed as growth inhibition at 10 uM after 48 hrs by SRB assay relative to control; settings: SK-OV-3, 48 h, read-out: GI
# [13] = Cytotoxicity against human 786-0 cells assessed as growth inhibition at 10 uM after 48 hrs by SRB assay relative to control; settings: 786-0, 48 h, read-out: GI
# [14] = Cytotoxicity against human Caki1 cells assessed as growth inhibition at 10 uM after 48 hrs by SRB assay relative to control; settings: CAKI-1, 48 h, read-out: GI
# [15] = Cytotoxicity against human MCF7 cells assessed as growth inhibition at 10 uM after 48 hrs by SRB assay relative to control; settings: MCF7, 48 h, read-out: GI
# [16] = Cytotoxicity against human BT549 cells assessed as growth inhibition at 10 uM after 48 hrs by SRB assay relative to control; settings: BT-549, 48 h, read-out: GI
# [17] = Cytotoxicity against human T47D cells assessed as growth inhibition at 10 uM after 48 hrs by SRB assay relative to control; settings: read-out: GI
# [18] = Cytotoxicity against human HL-60(TB) cells assessed as growth inhibition after 48 hrs by SRB assay; settings: HL-60, 48 h
# [19] = Cytotoxicity against human K562 cells assessed as growth inhibition after 48 hrs by SRB assay; settings: K562, 48 h
# [20] = Cytotoxicity against human RPMI8226 cells assessed as growth inhibition after 48 hrs by SRB assay; settings: RPMI-8226, 48 h
# [21] = Cytotoxicity against human HOP62 cells assessed as growth inhibition after 48 hrs by SRB assay; settings: HOP-62, 48 h
# [22] = Cytotoxicity against human NCI-H460 cells assessed as growth inhibition after 48 hrs by SRB assay; settings: NCI-H460, 48 h
# [23] = Cytotoxicity against human HT-29 cells assessed as growth inhibition after 48 hrs by SRB assay; settings: HT-29, 48 h
# [24] = Cytotoxicity against human SF268 cells assessed as growth inhibition after 48 hrs by SRB assay; settings: SF-268, 48 h
# [25] = Cytotoxicity against human SF295 cells assessed as growth inhibition after 48 hrs by SRB assay; settings: SF-295, 48 h
# [26] = Cytotoxicity against human SNB75 cells assessed as growth inhibition after 48 hrs by SRB assay; settings: SNB-75, 48 h
# [27] = Cytotoxicity against human U251 cells assessed as growth inhibition after 48 hrs by SRB assay; settings: U-251, 48 h
# [28] = Cytotoxicity against human M14 cells assessed as growth inhibition after 48 hrs by SRB assay; settings: M14, 48 h
# [29] = Cytotoxicity against human MDA-MB-435 cells assessed as growth inhibition after 48 hrs by SRB assay; settings: MDA-MB-435, 48 h
# [30] = Cytotoxicity against human UACC62 cells assessed as growth inhibition after 48 hrs by SRB assay; settings: UACC-62, 48 h
# [31] = Cytotoxicity against human NCI-ADR-RES cells assessed as growth inhibition after 48 hrs by SRB assay
# [32] = Cytotoxicity against human SKOV3 cells assessed as growth inhibition after 48 hrs by SRB assay; settings: SK-OV-3, 48 h
# [33] = Cytotoxicity against human A498 cells assessed as growth inhibition after 48 hrs by SRB assay; settings: A498, 48 h
# [34] = Cytotoxicity against human UO31 cells assessed as growth inhibition after 48 hrs by SRB assay; settings: UO-31, 48 h
# [35] = Cytotoxicity against human 786-0 cells assessed as growth inhibition after 48 hrs by SRB assay; settings: 786-0, 48 h
# [36] = Cytotoxicity against human ACHN cells assessed as growth inhibition after 48 hrs by SRB assay
# [37] = Cytotoxicity against human DU145 cells assessed as growth inhibition after 48 hrs by SRB assay; settings: DU-145, 48 h
# [38] = Cytotoxicity against human MCF7 cells assessed as growth inhibition after 48 hrs by SRB assay; settings: MCF7, 48 h
# [39] = Cytotoxicity against human K562 cells assessed as growth inhibition at 10 uM after 48 hrs by SRB assay relative to control; settings: K562, 48 h, read-out: GI
# [40] = Cytotoxicity against human SK-MEL-5 cells assessed as growth inhibition at 10 uM after 48 hrs by SRB assay relative to control; settings: SK-MEL-5, 48 h, read-out: GI
# [41] = Cytotoxicity against human UACC62 cells assessed as growth inhibition at 10 uM after 48 hrs by SRB assay relative to control; settings: UACC-62, 48 h, read-out: GI
# [42] = Cytotoxicity against human SN12C cells assessed as growth inhibition at 10 uM after 48 hrs by SRB assay relative to control; settings: read-out: GI
compound,measurement,setting,value
COc1ccc(CN2c3ccccc3Oc3ccccc32)cc1O,inhibition of growth at 10 µM,[1],88%
same,inhibition of growth at 10 µM,[2],66%
same,inhibition of growth at 10 µM,[3],86%
same,inhibition of growth at 10 µM,[4],79%
same,inhibition of growth at 10 µM,[5],43%
same,inhibition of growth at 10 µM,[6],84%
same,inhibition of growth at 10 µM,[7],73%
same,inhibition of growth at 10 µM,[8],76%
same,inhibition of growth at 10 µM,[9],82%
same,inhibition of growth at 10 µM,[10],91%
same,inhibition of growth at 10 µM,[11],9%
same,inhibition of growth at 10 µM,[12],69%
same,inhibition of growth at 10 µM,[13],57%
same,inhibition of growth at 10 µM,[14],61%
same,inhibition of growth at 10 µM,[15],73%
same,inhibition of growth at 10 µM,[16],60%
same,inhibition of growth at 10 µM,[17],69%
COc1ccc(CN2c3ccccc3Sc3ccccc32)c(C(F)(F)F)c1,inhibition of growth at 10 µM,[1],90%
same,inhibition of growth at 10 µM,[2],56%
same,inhibition of growth at 10 µM,[3],92%
same,inhibition of growth at 10 µM,[4],80%
same,inhibition of growth at 10 µM,[5],44%
same,inhibition of growth at 10 µM,[6],100%
same,inhibition of growth at 10 µM,[7],92%
same,inhibition of growth at 10 µM,[8],79%
same,inhibition of growth at 10 µM,[9],92%
same,inhibition of growth at 10 µM,[10],100%
same,inhibition of growth at 10 µM,[11],35%
same,inhibition of growth at 10 µM,[12],82%
same,inhibition of growth at 10 µM,[13],58%
same,inhibition of growth at 10 µM,[14],67%
same,inhibition of growth at 10 µM,[15],76%
same,inhibition of growth at 10 µM,[16],47%
same,inhibition of growth at 10 µM,[17],74%
same,GI50,[18],412 nM
same,GI50,[19],395 nM
same,GI50,[20],3000 nM
same,GI50,[21],604 nM
same,GI50,[22],456 nM
same,GI50,[23],681 nM
same,GI50,[24],10900 nM
same,GI50,[25],320 nM
same,GI50,[26],241 nM
same,GI50,[27],431 nM
same,GI50,[28],446 nM
same,GI50,[29],396 nM
same,GI50,[30],917 nM
same,GI50,[31],462 nM
same,GI50,[32],5570 nM
same,GI50,[33],372 nM
same,GI50,[34],3980 nM
same,GI50,[35],9050 nM
same,GI50,[36],666 nM
same,GI50,[37],2080 nM
same,GI50,[38],349 nM
COc1ccc(CN2c3ccccc3Sc3ccccc32)cc1F,inhibition of growth at 10 µM,[1],78%
same,inhibition of growth at 10 µM,[39],89%
same,inhibition of growth at 10 µM,[2],69%
same,inhibition of growth at 10 µM,[3],91%
same,inhibition of growth at 10 µM,[4],84%
same,inhibition of growth at 10 µM,[5],61%
same,inhibition of growth at 10 µM,[6],100%
same,inhibition of growth at 10 µM,[7],55%
same,inhibition of growth at 10 µM,[8],79%
same,inhibition of growth at 10 µM,[9],100%
same,inhibition of growth at 10 µM,[10],100%
same,inhibition of growth at 10 µM,[40],78%
same,inhibition of growth at 10 µM,[41],72%
same,inhibition of growth at 10 µM,[11],57%
same,inhibition of growth at 10 µM,[12],83%
same,inhibition of growth at 10 µM,[13],78%
same,inhibition of growth at 10 µM,[14],46%
same,inhibition of growth at 10 µM,[42],55%
same,inhibition of growth at 10 µM,[15],84%
same,inhibition of growth at 10 µM,[16],50%
same,inhibition of growth at 10 µM,[17],50%
same,GI50,[18],262 nM
same,GI50,[19],369 nM
same,GI50,[20],482 nM
same,GI50,[21],506 nM
same,GI50,[22],389 nM
same,GI50,[23],331 nM
same,GI50,[24],1430 nM
same,GI50,[25],333 nM
same,GI50,[26],204 nM
same,GI50,[27],529 nM
same,GI50,[28],317 nM
same,GI50,[29],189 nM
same,GI50,[30],499 nM
same,GI50,[31],326 nM
same,GI50,[32],475 nM
same,GI50,[33],283 nM
same,GI50,[34],916 nM
same,GI50,[35],579 nM
same,GI50,[36],1220 nM
same,GI50,[37],438 nM
same,GI50,[38],365 nM
